{
  "source": "patent US5834435A",
  "about": "“Inhibition of TNF-α pleiotropic and cytotoxic effects” (priority 1996, dated 1998)",
  "key": {"[1]": {"test_system": "E6/1.2 anti-GMDP monoclonal antibody", "experiment": "Antibody capture assay with antigen competition variation", "assay_type": "binding, mouse", "settings": "1 μg/well and 0.1 μg/well GMDP-Lys-PAA; FIGS. 1A,B and 2", "text": "Antibody capture assay (Antibodies: A laboratory Manual (E. Harlow and D. Lane, eds.), Cold Spring Harbor Laboratory, 1988) with antigen competition variation has been used to detect GMDP in human […]. Highly specific mouse E6/1.2 anti-GMDP monoclonal antibody (Ka=2×10^9 M^-1) and GMDP conjugated to polyacrylamide backbone through amino group of lysine (GMDP-Lys-PAA) were obtained from Dr. Nesmeyanov, the Shemyakin and Ovchinnikov Institute of Bioorganic Chemistry, Russian Academy of Sciences, Moscow, Russia.\nBriefly, GMDP-Lys-PAA or serial dilutions of human female milk in phosphate buffered saline (PBS) were adsorbed onto wells of microtiter plates for several hours. After washing with PBS, remaining binding sites were blocked by 1 h incubations with 200 μl PBS+3% bovine serum albumin (BSA). After washing with PBS 100 μl of E6/1.2 antibody, diluted 1:1,000 or 1:2,000 with PBS+1% BSA, were added. The incubation was carried out for 1 h at room temperature. […] Optical density at 492 nm was measured.\nTwo different amounts of GMDP-Lys-PAA in PBS were adsorbed onto wells of microtiter plates (1 μg/well and 0.1 μg/well). […] Inhibition index (I,%) was calculated from: I=(1-Ao/A1)×100, where Ao and A1 are optical densities of samples without or with inhibitor, respectively."}, "[2]": {"test_system": "isolated cardiac myocytes", "experiment": "Effects of TNF-α on contractivity of adult cardiac myocytes (cell shortening, video edge detection)", "assay_type": "cell-based, human", "description": "Myocardial samples were obtained from organ donors, whose hearts were initially considered for cardiac transplantation but were subsequently deemed unsuitable for transplantation because of blood type or size incompatibility. Freshly isolated myocytes were treated for 60 minutes at 37° C. with single concentration of GMDP (5 μg/ml). Control cells were treated with single concentration of recombinant human TNF-α (Genzyme) that is known to produce negative inotropic effects in isolated cardiac myocytes (200 μ/ml). Cell motion was characterized with video edge detection as previously described in detail (17). Results were expressed as percentage change in cell length from resting values."}, "[3]": {"test_system": "patients with terminate stage of cancer", "text": "27 patients with terminate stage of cancer participated in this study. The study group consisted of 19 females and 8 males between 14 and 59 years of age. 3 of them have had malignant brain tumors glioblastoma multiforme, 9 patients had breast carcinoma with massive metastasis to the liver or brain, one patient had intermediate stage lymphoma, one of them had stomach cancer with liver metastasis, three patients had hepatomas with lung metastasis, and two of them pancreatic cancer with liver metastasis.\n19 patients were given GMDP orally at dosage of 50 mg daily as a water solution for fourteen days. 8 patients received a placebo.\nResults were expressed as percentage change in LDH activity from pretreatment values."}, "[4]": {"test_system": "patients with terminate stage of cancer", "text": "Results were expressed as percentage change in both triglycerides and cholesterol level from pretreatment values.", "remark": "listed apart in the source"}, "[5]": {"test_system": "isolated cardiac myocytes", "experiment": "Intracellular fluorescence brightness in isolated cardiac myocytes", "assay_type": "cell-based", "settings": "200 μ/ml TNF-α; n=45 cells/group; FIG. 7 insert", "text": "As shown, the peak level of intracellular fluorescence brightness was reduced strikingly for the cells treated with 200 μ/ml TNF-α."}},
  "data": [
    {"molecule": "CC(=O)NC1C(OC2C(CO)OC(O)C(NC(C)=O)C2OC(C)C(=O)NC(C)C(=O)NC(CCC(=O)O)C(N)=O)OC(CO)C(O)C1O", "note": "[GMDP, N-acetyl-D-glucosaminyl-(β1-4)-N-acetylmuramyl-L-alanyl-D-isoglutamine]", "values": [
      {"measurement": "inhibition of E6/1.2 antibody interaction with the adsorbed GMDP-Lys-PAA", "setting": "[1]", "value": "inhibition"},
      {"measurement": "negative inotropic effects of TNF-α in isolated cardiac myocytes", "setting": "[2]; FIGS. 6 and 7 taken together", "value": "inhibits"},
      {"measurement": "effects of TNF alfa on cell shortening after pretreatment", "setting": "[2]; GMDP 5 μg/ml, 60 minutes at 37° C., 200 μ/ml TNF alfa, FIG. 6", "value": "completely attenuated"},
      {"measurement": "overall clinical condition during the follow up period", "setting": "[3]; all patients treated with GMDP", "value": "improved"},
      {"measurement": "side effects", "setting": "[3]; orally 50 mg daily as water solution for fourteen days", "value": "None"},
      {"measurement": "decreasing of LDH activity (percentage change from pretreatment values)", "setting": "[3]; orally 50 mg daily, fourteen days, lowest level at the fourteenth day, FIG. 8", "value": 68, "unit": "%"},
      {"measurement": "nausea and vomiting subsided", "setting": "[3]; patients who had these symptoms of tumor toxicity before treatment", "value": 7, "unit": "patients"},
      {"measurement": "reduction of elevated cholesterol level (percentage change from pretreatment values)", "setting": "[4]; patient treated with GMDP, FIG. 10", "value": 51, "unit": "%"},
      {"measurement": "decreasing for triglycerides concentration (percentage change from pretreatment values)", "setting": "[4]; treated patients with elevated triglycerides, FIG. 9", "value": 82, "unit": "%"}
    ]},
    {"molecule": "TNF-α [reference compound]", "values": [
      {"measurement": "cell shortening", "setting": "[2]; cells treated with TNF-α vs control, n=40 cells/group, FIG. 6", "value": "concentration-dependent decrease"},
      {"measurement": "decrease in the percent change in peak intensity of fluorescence brightness", "setting": "[5]", "value": "~ 38%"}
    ]}
  ]
}
